{
  "source": "PubChem BioAssay (NCI)",
  "assay_in_all_cases": "DTP human tumour cell line panel, 48 h",
  "key": {"[1]": {"tested_on": "MALME-3M melanoma"}, "[2]": {"tested_on": "CCRF-CEM leukemia"}, "[3]": {"tested_on": "SN12C renal"}, "[4]": {"tested_on": "RPMI-8226 leukemia"}, "[5]": {"tested_on": "HCC-2998 colon"}, "[6]": {"tested_on": "NCI-H226 lung"}, "[7]": {"tested_on": "KM12 colon"}, "[8]": {"tested_on": "SK-MEL-5 melanoma"}, "[9]": {"tested_on": "MOLT-4 leukemia"}, "[10]": {"tested_on": "IGROV1 ovarian"}, "[11]": {"tested_on": "K-562 leukemia"}, "[12]": {"tested_on": "SNB-78 CNS"}, "[13]": {"tested_on": "ACHN renal"}, "[14]": {"tested_on": "OVCAR-8 ovarian"}, "[15]": {"tested_on": "HT29 colon"}, "[16]": {"tested_on": "NCI-H522 lung"}, "[17]": {"tested_on": "DLD-1 colon"}, "[18]": {"tested_on": "DMS 114 small cell lung"}, "[19]": {"tested_on": "786-0 renal"}, "[20]": {"tested_on": "TK-10 renal"}, "[21]": {"tested_on": "SNB-75 CNS"}, "[22]": {"tested_on": "UO-31 renal"}, "[23]": {"tested_on": "HOP-18 NSCLC"}, "[24]": {"tested_on": "SR leukemia"}, "[25]": {"tested_on": "U251 CNS"}, "[26]": {"tested_on": "CAKI-1 renal"}, "[27]": {"tested_on": "KM20L2 colon"}, "[28]": {"tested_on": "HCT-116 colon"}, "[29]": {"tested_on": "SF-295 CNS"}, "[30]": {"tested_on": "NCI-H460 lung"}, "[31]": {"tested_on": "OVCAR-3 ovarian"}, "[32]": {"tested_on": "RXF 393 renal"}, "[33]": {"tested_on": "UACC-257 melanoma"}, "[34]": {"tested_on": "SK-MEL-28 melanoma"}, "[35]": {"tested_on": "A498 renal"}, "[36]": {"tested_on": "LXFL 529 NSCLC"}, "[37]": {"tested_on": "COLO 205 colon"}, "[38]": {"tested_on": "SNB-19 CNS"}, "[39]": {"tested_on": "A549 NSCLC"}, "[40]": {"tested_on": "EKVX NSCLC"}, "[41]": {"tested_on": "SK-OV-3 ovarian"}, "[42]": {"tested_on": "SK-MEL-2 melanoma"}, "[43]": {"tested_on": "UACC-62 melanoma"}, "[44]": {"tested_on": "HL-60(TB) leukemia"}, "[45]": {"tested_on": "SF-268 CNS"}, "[46]": {"tested_on": "SF-539 CNS"}, "[47]": {"tested_on": "M19-MEL melanoma"}, "[48]": {"tested_on": "SW-620 colon"}, "[49]": {"tested_on": "NCI-H23 lung"}, "[50]": {"tested_on": "DMS 273 small cell lung"}, "[51]": {"tested_on": "HCT-15 colon"}, "[52]": {"tested_on": "MDA-MB-231 breast"}, "[53]": {"tested_on": "MCF7 breast"}, "[54]": {"tested_on": "OVCAR-5 ovarian"}, "[55]": {"tested_on": "HOP-92 NSCLC"}, "[56]": {"tested_on": "MDA-N"}, "[57]": {"tested_on": "T-47D breast"}, "[58]": {"tested_on": "PC-3 prostate"}, "[59]": {"tested_on": "MDA-MB-435"}, "[60]": {"tested_on": "DU-145 prostate"}, "[61]": {"tested_on": "LOX IMVI melanoma"}},
  "note": "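Exposure lasted 48 hours, with cells grown in 96-well plates and compounds tested at five concentrations. The concentration for full growth arrest is given as TGI.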",
  "data": [
    {"smiles": "C1CN2CCO[SiH](O1)OCC2", "values": [
      {"measurement": "TGI", "setting": "[1]", "value": "> 100", "unit": "µM"},
      {"measurement": "TGI", "setting": "[2]", "value": "> 100000", "unit": "nM"},
      {"measurement": "TGI", "setting": "[3]", "value": "> 100000", "unit": "nM"},
      {"measurement": "TGI", "setting": "[4]", "value": "> 100000", "unit": "nM"},
      {"measurement": "TGI", "setting": "[5]", "value": "> 100000", "unit": "nM"},
      {"measurement": "TGI", "setting": "[6]", "value": "> 100", "unit": "µM"},
      {"measurement": "TGI", "setting": "[7]", "value": "> 100", "unit": "µM"},
      {"measurement": "TGI", "setting": "[8]", "value": "> 100", "unit": "µM"},
      {"measurement": "TGI", "setting": "[9]", "value": "> 100", "unit": "µM"},
      {"measurement": "TGI", "setting": "[10]", "value": "> 100", "unit": "µM"},
      {"measurement": "TGI", "setting": "[11]", "value": "> 100000", "unit": "nM"},
      {"measurement": "TGI", "setting": "[12]", "value": "> 100", "unit": "µM"},
      {"measurement": "TGI", "setting": "[13]", "value": "> 100", "unit": "µM"},
      {"measurement": "TGI", "setting": "[14]", "value": "> 100000", "unit": "nM"},
      {"measurement": "TGI", "setting": "[15]", "value": "> 100", "unit": "µM"},
      {"measurement": "TGI", "setting": "[16]", "value": "> 100", "unit": "µM"},
      {"measurement": "TGI", "setting": "[17]", "value": "> 100", "unit": "µM"},
      {"measurement": "TGI", "setting": "[18]", "value": "> 100", "unit": "µM"},
      {"measurement": "TGI", "setting": "[19]", "value": "> 100", "unit": "µM"},
      {"measurement": "TGI", "setting": "[20]", "value": "> 100", "unit": "µM"},
      {"measurement": "TGI", "setting": "[21]", "value": "> 100", "unit": "µM"},
      {"measurement": "TGI", "setting": "[22]", "value": "> 100", "unit": "µM"},
      {"measurement": "TGI", "setting": "[23]", "value": "> 100", "unit": "µM"},
      {"measurement": "TGI", "setting": "[24]", "value": "> 100", "unit": "µM"},
      {"measurement": "TGI", "setting": "[25]", "value": "> 100", "unit": "µM"},
      {"measurement": "TGI", "setting": "[26]", "value": "> 100", "unit": "µM"},
      {"measurement": "TGI", "setting": "[27]", "value": "> 100", "unit": "µM"},
      {"measurement": "TGI", "setting": "[28]", "value": "> 100", "unit": "µM"},
      {"measurement": "TGI", "setting": "[29]", "value": "> 100000", "unit": "nM"},
      {"measurement": "TGI", "setting": "[30]", "value": "> 100000", "unit": "nM"},
      {"measurement": "TGI", "setting": "[31]", "value": "> 100", "unit": "µM"},
      {"measurement": "TGI", "setting": "[32]", "value": "> 100", "unit": "µM"},
      {"measurement": "TGI", "setting": "[33]", "value": "> 100", "unit": "µM"},
      {"measurement": "TGI", "setting": "[34]", "value": "> 100", "unit": "µM"},
      {"measurement": "TGI", "setting": "[35]", "value": "> 100000", "unit": "nM"},
      {"measurement": "TGI", "setting": "[36]", "value": "> 100", "unit": "µM"},
      {"measurement": "TGI", "setting": "[37]", "value": "> 100000", "unit": "nM"},
      {"measurement": "TGI", "setting": "[38]", "value": "> 100", "unit": "µM"},
      {"measurement": "TGI", "setting": "[39]", "value": "> 100000", "unit": "nM"},
      {"measurement": "TGI", "setting": "[40]", "value": "> 100", "unit": "µM"},
      {"measurement": "TGI", "setting": "[41]", "value": "> 100", "unit": "µM"},
      {"measurement": "TGI", "setting": "[42]", "value": "> 100", "unit": "µM"},
      {"measurement": "TGI", "setting": "[43]", "value": "> 100", "unit": "µM"},
      {"measurement": "TGI", "setting": "[44]", "value": "> 100000", "unit": "nM"},
      {"measurement": "TGI", "setting": "[45]", "value": "> 100", "unit": "µM"},
      {"measurement": "TGI", "setting": "[46]", "value": "> 100000", "unit": "nM"},
      {"measurement": "TGI", "setting": "[47]", "value": "> 100", "unit": "µM"},
      {"measurement": "TGI", "setting": "[48]", "value": "> 100000", "unit": "nM"},
      {"measurement": "TGI", "setting": "[49]", "value": "> 100", "unit": "µM"},
      {"measurement": "TGI", "setting": "[50]", "value": "> 100", "unit": "µM"}
    ]},
    {"smiles": "CCCCCCC(=O)OC[n+]1ccc2c(C)c3[nH]c4ccc(OC)cc4c3c(C)c2c1", "values": [
      {"measurement": "TGI", "setting": "[1]", "value": 14.2, "unit": "µM"},
      {"measurement": "TGI", "setting": "[2]", "value": 1630, "unit": "nM"},
      {"measurement": "TGI", "setting": "[3]", "value": 1910, "unit": "nM"},
      {"measurement": "TGI", "setting": "[4]", "value": 2100, "unit": "nM"},
      {"measurement": "TGI", "setting": "[5]", "value": 2680, "unit": "nM"},
      {"measurement": "TGI", "setting": "[51]", "value": 1240, "unit": "nM"},
      {"measurement": "TGI", "setting": "[52]", "value": 2360, "unit": "nM"},
      {"measurement": "TGI", "setting": "[53]", "value": 1750, "unit": "nM"},
      {"measurement": "TGI", "setting": "[10]", "value": 3.83, "unit": "µM"},
      {"measurement": "TGI", "setting": "[11]", "value": 1310, "unit": "nM"},
      {"measurement": "TGI", "setting": "[54]", "value": 2750, "unit": "nM"},
      {"measurement": "TGI", "setting": "[55]", "value": 3.49, "unit": "µM"},
      {"measurement": "TGI", "setting": "[13]", "value": 4.88, "unit": "µM"},
      {"measurement": "TGI", "setting": "[14]", "value": 2120, "unit": "nM"},
      {"measurement": "TGI", "setting": "[56]", "value": 1590, "unit": "nM"},
      {"measurement": "TGI", "setting": "[57]", "value": 11.5, "unit": "µM"},
      {"measurement": "TGI", "setting": "[20]", "value": 10.4, "unit": "µM"},
      {"measurement": "TGI", "setting": "[58]", "value": 1510, "unit": "nM"},
      {"measurement": "TGI", "setting": "[22]", "value": 5.48, "unit": "µM"},
      {"measurement": "TGI", "setting": "[24]", "value": 3.46, "unit": "µM"},
      {"measurement": "TGI", "setting": "[59]", "value": 1790, "unit": "nM"},
      {"measurement": "TGI", "setting": "[26]", "value": 6.69, "unit": "µM"},
      {"measurement": "TGI", "setting": "[27]", "value": 5.32, "unit": "µM"},
      {"measurement": "TGI", "setting": "[29]", "value": 1590, "unit": "nM"},
      {"measurement": "TGI", "setting": "[30]", "value": 1020, "unit": "nM"},
      {"measurement": "TGI", "setting": "[31]", "value": 4.84, "unit": "µM"},
      {"measurement": "TGI", "setting": "[60]", "value": 3.59, "unit": "µM"},
      {"measurement": "TGI", "setting": "[35]", "value": 2020, "unit": "nM"},
      {"measurement": "TGI", "setting": "[37]", "value": 1340, "unit": "nM"},
      {"measurement": "TGI", "setting": "[39]", "value": 1880, "unit": "nM"},
      {"measurement": "TGI", "setting": "[41]", "value": 3.83, "unit": "µM"},
      {"measurement": "TGI", "setting": "[42]", "value": 9.35, "unit": "µM"},
      {"measurement": "TGI", "setting": "[44]", "value": 1700, "unit": "nM"},
      {"measurement": "TGI", "setting": "[46]", "value": 1670, "unit": "nM"},
      {"measurement": "TGI", "setting": "[48]", "value": 1780, "unit": "nM"},
      {"measurement": "TGI", "setting": "[61]", "value": 1500, "unit": "nM"}
    ]}
  ]
}
